The target of experiment [1] is Human thrombin (Homo sapiens, UniProt P00734). As to the kind of experiment: Inhibition of paralogous protease thrombin. In kind it is biochemical. On the procedure: (§1) The target specificity of the isolated bicyclic peptide inhibitors was assessed by determining the inhibition of trypsin-like human serine proteases of the class S1A which comprises 79 members (Yousef, et al, Biochem Biophys Res Commun 2003, 305 (1), 28-36). The panel of proteases included hfXIa which shares the highest sequence identity with hPK (69%) as well as the structurally less related but vital human serine proteases thrombin (36%), plasmin (34% sequence identity with hPK) and factor XIIa (35%).

In experiment [2] the target is T1, Human factor XIIa (hfXIIa) (Homo sapiens, UniProt P00748).
T1 sequence (P00748 373-615 limits assumed): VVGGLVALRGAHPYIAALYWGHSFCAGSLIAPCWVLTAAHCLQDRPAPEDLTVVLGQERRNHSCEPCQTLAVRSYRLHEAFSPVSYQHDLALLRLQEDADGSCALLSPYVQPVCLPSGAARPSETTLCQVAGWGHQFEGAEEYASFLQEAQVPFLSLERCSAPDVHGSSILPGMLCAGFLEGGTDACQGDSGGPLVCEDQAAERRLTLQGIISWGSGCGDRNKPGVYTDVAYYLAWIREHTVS
As to the kind of experiment: Inhibition of paralogous protease factor XIIa. It is filed as biochemical. On the procedure: as §1

In experiment [3] the target is human plasma kallikrein (hPK) (Homo sapiens, UniProt P03952). As to the kind of experiment: Enzyme inhibition assay, human plasma kallikrein.
Experiment [4] addresses Human factor XIa (hfXIa) (Homo sapiens, UniProt P03951). Nature of the experiment: Inhibition of paralogous protease factor XIa. It is filed as biochemical. Particulars: highest concentration tested (100 μM). On the procedure:
as §1

In experiment [5] the target is T2, Human plasma kallikrein (hPK) (human, UniProt P03952 20-638, limits assumed).
T2 construct: also called human PK; human kallikrein
As to the kind of experiment: enzyme inhibition assay (fluorogenic substrate).

Experiment [6] deals with T2, Human plasma kallikrein (hPK). As to the kind of experiment: enzyme inhibition assay (fluorogenic substrate). This is another data set of the same source.
Where [7] appears, read: highest concentration tested (100 μM).

Numbered stars: 1 amine (or outer) side, 2 acyl side, 3 side chain; on linkers, the order of the positions; unused ones are H or OH. Bridge positions count the residues as written; N and C are the ends. Square brackets hold non-standard residues; d marks the D form. Peptide text beside a SMILES is read from it. Arg(Me2a) = CN(C)C(=N)NCCC[C@H](N)C(=O)O; Arg(Me2s) = CN=C(NC)NCCC[C@H](N)C(=O)O; TBMB = c1c(C[*:1])cc(C[*:3])cc1C[*:2]

T2 sequence (P03952 20-638 limits assumed): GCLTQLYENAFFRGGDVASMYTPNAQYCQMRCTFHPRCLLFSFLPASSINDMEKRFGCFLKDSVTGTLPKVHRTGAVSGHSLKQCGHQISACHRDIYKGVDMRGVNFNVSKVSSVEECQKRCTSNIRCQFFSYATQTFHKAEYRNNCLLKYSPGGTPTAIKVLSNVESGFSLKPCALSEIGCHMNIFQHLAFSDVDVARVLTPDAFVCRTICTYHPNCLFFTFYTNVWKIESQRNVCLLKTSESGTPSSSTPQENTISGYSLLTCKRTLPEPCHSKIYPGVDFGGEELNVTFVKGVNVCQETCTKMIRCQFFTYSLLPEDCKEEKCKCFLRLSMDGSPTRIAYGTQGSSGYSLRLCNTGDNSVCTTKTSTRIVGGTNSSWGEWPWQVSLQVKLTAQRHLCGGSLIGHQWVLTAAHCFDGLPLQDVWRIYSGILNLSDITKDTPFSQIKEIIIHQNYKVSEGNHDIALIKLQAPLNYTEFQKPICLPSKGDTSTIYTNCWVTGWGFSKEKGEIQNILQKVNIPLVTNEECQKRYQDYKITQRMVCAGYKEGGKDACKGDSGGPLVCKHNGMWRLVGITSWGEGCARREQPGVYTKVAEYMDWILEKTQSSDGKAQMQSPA
Sequence of human plasma kallikrein (hPK) (P03952 20-638): as the sequence (P03952 20-638 limits assumed) above
Sequence of Human factor XIa (hfXIa) (P03951 388-625 limits assumed): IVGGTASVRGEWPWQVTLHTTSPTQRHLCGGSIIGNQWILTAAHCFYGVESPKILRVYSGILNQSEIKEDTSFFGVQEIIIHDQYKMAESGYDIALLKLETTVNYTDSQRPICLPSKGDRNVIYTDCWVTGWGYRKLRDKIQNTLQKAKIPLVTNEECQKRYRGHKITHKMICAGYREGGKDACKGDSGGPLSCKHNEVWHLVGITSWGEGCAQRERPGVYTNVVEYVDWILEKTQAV
Sequence of Human factor XIa (hfXIa) (P03951 19-387 partner limits assumed): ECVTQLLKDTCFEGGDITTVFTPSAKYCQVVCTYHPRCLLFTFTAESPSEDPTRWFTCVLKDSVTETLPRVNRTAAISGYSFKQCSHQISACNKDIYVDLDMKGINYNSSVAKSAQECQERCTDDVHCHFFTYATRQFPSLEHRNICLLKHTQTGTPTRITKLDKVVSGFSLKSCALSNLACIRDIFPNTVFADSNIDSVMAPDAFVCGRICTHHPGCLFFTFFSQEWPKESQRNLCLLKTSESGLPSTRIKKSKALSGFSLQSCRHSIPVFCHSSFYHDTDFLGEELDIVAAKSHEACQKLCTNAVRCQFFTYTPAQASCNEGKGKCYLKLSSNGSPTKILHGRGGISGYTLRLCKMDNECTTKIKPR

One may read the IC50 as the concentration needed to halve the response being measured. For orientation: Ki means the dissociation constant of the complex between target and ligand, obtained from inhibition or displacement. A low value points to higher affinity. Take `CC(C)C[C@@H]1NC(=O)[C@@H]2CSCc3cc(cc(c3)CSC[C@@H](C(=O)N[C@@H](C)C(N)=O)NC(=O)[C@@H]3CCCN3C(=O)[C@H](CCCNC(=N)N)NC(=O)[C@H](CCCNC(=N)N)NC(=O)[C@H](Cc3ccccc3)NC1=O)CSC[C@H](NC(=O)[C@H](C)N)C(=O)N[C@@H](C)C(=O)N[C@@H](CC(=O)O)C(=O)N1CCC[C@H]1C(=O)N[C@@H](Cc1c[nH]c3ccccc13)C(=O)N[C@@H](C)C(=O)N2` [06-63 T] (H-ACADPWACLFRRPCA-NH2; linker 2-8-14 via TBMB): the IC50 in experiment [1] and in experiment [2] was above 10 µM throughout. Also, the Ki in experiment [3] came to 1.28 µM.

On to `CSCC[C@@H]1NC(=O)[C@H](CCC(=O)O)NC(=O)[C@H](CCC(N)=O)NC(=O)[C@H](Cc2c[nH]cn2)NC(=O)[C@H]([C@@H](C)O)NC(=O)[C@@H]2CSCc3cc(cc(c3)CSC[C@@H](C(=O)N[C@@H](C)C(N)=O)NC1=O)CSC[C@H](NC(=O)[C@H](C)N)C(=O)NCC(=O)N[C@@H](C(C)C)C(=O)N1CCC[C@H]1C(=O)N[C@@H](Cc1ccc(O)cc1)C(=O)N[C@@H](CCCNC(=N)N)C(=O)N2` [06-64 T] (H-ACGVPYRCTHQEMCA-NH2; linker 2-8-14 via TBMB), for which the IC50 in experiment [1] and in experiment [2] was above 10 µM in each case. Moreover, in experiment [3], affinity was put at a Ki of 0.0069 µM.

With `CC(C)C[C@@H]1NC(=O)[C@H](CC(N)=O)NC(=O)[C@H](CCC(N)=O)NC(=O)[C@H](Cc2c[nH]cn2)NC(=O)[C@H](CC(C)C)NC(=O)[C@@H]2CSCc3cc(cc(c3)CSC[C@@H](C(=O)N[C@@H](C)C(N)=O)NC1=O)CSC[C@H](NC(=O)[C@H](C)N)C(=O)N[C@@H]([C@@H](C)O)C(=O)N[C@@H](Cc1ccc(O)cc1)C(=O)N1CCC[C@H]1C(=O)N[C@@H](Cc1ccc(O)cc1)C(=O)N[C@@H](CCCCN)C(=O)N2` [Peptide 2A10] (H-ACTYPYKCLHQNLCA-NH2; linker 2-8-14 via TBMB), in experiment [4], the “inhibition of hfXIa” value was “did not inhibit”. Moreover, the inhibition of thrombin entry in experiment [1] (setting [7]) is recorded as “did not inhibit”. Moreover, the “inhibition of factor XIIa” value in experiment [2] (setting [7]) was “did not inhibit”. Also, in experiment [3], the Ki was determined as 0.00498 µM.

Take `C[C@H](N)C(=O)N[C@H]1CSCc2cc3cc(c2)CSC[C@H](NC(=O)[C@H](CCCNC(=N)N)NC(=O)[C@H](C)NC(=O)[C@@H]2CCCN2C(=O)[C@H](Cc2c[nH]c4ccccc24)NC(=O)[C@H]([C@@H](C)O)NC1=O)C(=O)N[C@@H]([C@@H](C)O)C(=O)N[C@@H](Cc1c[nH]cn1)C(=O)N[C@@H](CCC(N)=O)C(=O)N[C@@H](CC(N)=O)C(=O)N[C@@H](Cc1c[nH]c2ccccc12)C(=O)N[C@H](C(=O)N[C@@H](C)C(N)=O)CSC3` [Peptide 06-09] (H-ACTWPARCTHQNWCA-NH2; linker 2-8-14 via TBMB): the 50% inhibitory concentration (IC50) in experiment [1] and in experiment [2] was above 10 µM in each case. In experiment [3], this molecule gave a Ki of 0.0012 µM.

Take `CC(C)C[C@@H]1NC(=O)[C@H](CC(=O)O)NC(=O)[C@H](CCC(N)=O)NC(=O)[C@H](Cc2c[nH]cn2)NC(=O)[C@H](CC(N)=O)NC(=O)[C@@H]2CSCc3cc(cc(c3)CSC[C@@H](C(=O)N[C@@H](C)C(N)=O)NC1=O)CSC[C@H](NC(=O)[C@H](C)N)C(=O)N[C@@H](CO)C(=O)N[C@@H](Cc1c[nH]c3ccccc13)C(=O)N1CCC[C@H]1C(=O)N[C@@H](C)C(=O)N[C@@H](CCCNC(=N)N)C(=O)N2` [Peptide 06-57] (H-ACSWPARCNHQDLCA-NH2; linker 2-8-14 via TBMB): the IC50 in experiment [1] and in experiment [2] was above 10 µM in each case. In experiment [3], this molecule came in with a Ki of 0.0004 µM.

Take `CC(C)C[C@@H]1NC(=O)[C@H](CO)NC(=O)[C@H]([C@@H](C)O)NC(=O)[C@H]([C@@H](C)O)NC(=O)[C@H](CC(C)C)NC(=O)[C@@H]2CSCc3cc(cc(c3)CSC[C@@H](C(=O)N[C@@H](C)C(N)=O)NC1=O)CSC[C@H](NC(=O)[C@H](C)N)C(=O)N[C@@H](CCCNC(=N)N)C(=O)N[C@@H](Cc1c[nH]c3ccccc13)C(=O)N1CCC[C@H]1C(=O)N[C@@H](C)C(=O)N[C@@H](CCCNC(=N)N)C(=O)N2` [Peptide 06-59] (H-ACRWPARCLTTSLCA-NH2; linker 2-8-14 via TBMB): the half-maximal inhibitory concentration (IC50) in experiment [1] and in experiment [2] was above 10 µM throughout. The Ki in experiment [3] is 0.0005 µM.

Regarding `CC(C)C[C@@H]1NC(=O)[C@@H]2CSCc3cc(cc(c3)CSC[C@@H](C(=O)N[C@@H](C)C(N)=O)NC(=O)[C@H](Cc3ccc(O)cc3)NC(=O)[C@H](CC(=O)O)NC(=O)[C@H](CCC(N)=O)NC(=O)[C@H](Cc3c[nH]cn3)NC1=O)CSC[C@H](NC(=O)[C@H](C)N)C(=O)N[C@@H](CO)C(=O)N[C@@H](Cc1c[nH]c3ccccc13)C(=O)N1CCC[C@H]1C(=O)N[C@@H](Cc1ccc(O)cc1)C(=O)N[C@@H](CCCNC(=N)N)C(=O)N2` [Peptide 06-61] (H-ACSWPYRCLHQDYCA-NH2; linker 2-8-14 via TBMB), the IC50 in experiment [1] and in experiment [2] was above 10 µM each time. Moreover, the Ki in experiment [3] amounted to 0.0058 µM.

As for `CC(C)C[C@@H]1NC(=O)[C@@H]2CSCc3cc(cc(c3)CSC[C@@H](C(=O)N[C@@H](C)C(N)=O)NC(=O)[C@H](CC(C)C)NC(=O)[C@H](CC(=O)O)NC(=O)[C@H]([C@@H](C)O)NC(=O)[C@H](Cc3c[nH]cn3)NC1=O)CSC[C@H](NC(=O)[C@H](C)N)C(=O)N[C@@H](CC(N)=O)C(=O)N[C@@H](Cc1c[nH]c3ccccc13)C(=O)N1CCC[C@H]1C(=O)N[C@@H](Cc1ccc(O)cc1)C(=O)N[C@@H](CCCNC(=N)N)C(=O)N2` [Peptide 06-157] (H-ACNWPYRCLHTDLCA-NH2; linker 2-8-14 via TBMB), the IC50 in experiment [1] and in experiment [2] was above 10 µM in each case. Moreover, in experiment [3], the Ki stood at 0.0033 µM.

B1: Ac-(06-34-18) NDMA5 (peptide)
peptide: Ac-CSWPA[Arg(Me2a)]CLHQDLC-NH2
modifications: linker 1-7-13 via TBMB
SMILES: CC(=O)N[C@H]1CSCc2cc3cc(c2)CSC[C@H](NC(=O)[C@H](CCCNC(=N)N(C)C)NC(=O)[C@H](C)NC(=O)[C@@H]2CCCN2C(=O)[C@H](Cc2c[nH]c4ccccc24)NC(=O)[C@H](CO)NC1=O)C(=O)N[C@@H](CC(C)C)C(=O)N[C@@H](Cc1c[nH]cn1)C(=O)N[C@@H](CCC(N)=O)C(=O)N[C@@H](CC(=O)O)C(=O)N[C@@H](CC(C)C)C(=O)N[C@H](C(N)=O)CSC3
In turn, B1 showed a Ki in experiment [5] of 0.51 µM.

B2: Ac-(06-34-18) SDMA5 (peptide)
peptide: Ac-CSWPA[Arg(Me2s)]CLHQDLC-NH2
modifications: linker 1-7-13 via TBMB
SMILES: CN=C(NC)NCCC[C@@H]1NC(=O)[C@H](C)NC(=O)[C@@H]2CCCN2C(=O)[C@H](Cc2c[nH]c3ccccc23)NC(=O)[C@H](CO)NC(=O)[C@@H](NC(C)=O)CSCc2cc3cc(c2)CSC[C@H](NC1=O)C(=O)N[C@@H](CC(C)C)C(=O)N[C@@H](Cc1c[nH]cn1)C(=O)N[C@@H](CCC(N)=O)C(=O)N[C@@H](CC(=O)O)C(=O)N[C@@H](CC(C)C)C(=O)N[C@H](C(N)=O)CSC3
In experiment [5], B2 returned a Ki of 1.42 µM.

B3: Ac-(06-34-18) D-Trp2 (peptide)
peptide: Ac-CS[dW]PARCLHQDLC-NH2
modifications: linker 1-7-13 via TBMB
SMILES: CC(=O)N[C@H]1CSCc2cc3cc(c2)CSC[C@H](NC(=O)[C@H](CCCNC(=N)N)NC(=O)[C@H](C)NC(=O)[C@@H]2CCCN2C(=O)[C@@H](Cc2c[nH]c4ccccc24)NC(=O)[C@H](CO)NC1=O)C(=O)N[C@@H](CC(C)C)C(=O)N[C@@H](Cc1c[nH]cn1)C(=O)N[C@@H](CCC(N)=O)C(=O)N[C@@H](CC(=O)O)C(=O)N[C@@H](CC(C)C)C(=O)N[C@H](C(N)=O)CSC3
Turning to B3, the “fold loss in potency against Ac-06-34-18 wildtype” value in experiment [6] was 45000 fold.

B4: Ac-(06-34-18) D-Ala4 (peptide)
peptide: Ac-CSWP[dA]RCLHQDLC-NH2
modifications: linker 1-7-13 via TBMB
SMILES: CC(=O)N[C@H]1CSCc2cc3cc(c2)CSC[C@H](NC(=O)[C@H](CCCNC(=N)N)NC(=O)[C@@H](C)NC(=O)[C@@H]2CCCN2C(=O)[C@H](Cc2c[nH]c4ccccc24)NC(=O)[C@H](CO)NC1=O)C(=O)N[C@@H](CC(C)C)C(=O)N[C@@H](Cc1c[nH]cn1)C(=O)N[C@@H](CCC(N)=O)C(=O)N[C@@H](CC(=O)O)C(=O)N[C@@H](CC(C)C)C(=O)N[C@H](C(N)=O)CSC3
Consider B4, for which the “fold reduction of affinity against Ac-06-34-18 wildtype” value in experiment [6] was 7000 fold.

Source of the values: patent publication US9994617B2, “Modulation of structured polypeptide specificity” (BICYCLE THERAPEUTICS LIMITED, priority 2011, dated 2018).
